Laboratory results: US20230085307A1, “PYRIDAZINONE COMPOUND AND HERBICIDE” (NISSAN CHEMICAL CORPORATION, priority 2019, published 2023)

How the values were obtained:
[1] = system: lambsquarters; experiment: Test Example 4: herbicidal effect by soil treatment (Table 19, symbol O); format: in vivo, lambsquarters (Chenopodium album)
Outline: (§1)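 Step 1: sow seeds in sterilized diluvial soil, cover ~1.5 cm. Step 2: spray diluted emulsion onto soil surface at predetermined rate. Step 3: greenhouse, 25–30° C, three weeks. Step 4: grade effect on each plant by earlier criteria.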

[2] = system: southern crabgrass; experiment: Test Example 4: herbicidal effect by soil treatment (Table 19, symbol F); format: in vivo, southern crabgrass (Digitaria ciliaris)
Outline: as §1

[3] = system: barnyard grass; experiment: Test Example 5: herbicidal effect by foliage application, plastic box (Table 20, symbol H); format: in vivo, barnyard grass (Echinochloa crus-galli)
Outline: (§2)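 Foliar spray test: emulsion formulation diluted in water to a set application rate, sprayed onto 14-day-old plants raised in diluvial soil at 25° C to 30° C under glass. Both herbicidal effect and crop effect rated visually three weeks later.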

[4] = system: Italian ryegrass; experiment: Test Example 5: herbicidal effect by foliage application, plastic box (Table 20, symbol K); format: in vivo, Italian ryegrass (Lolium multiflorum)
Outline: as §2

[5] = system: persian speedwell; experiment: Test Example 4: herbicidal effect by soil treatment (Table 19, symbol R); format: in vivo, Persian speedwell (Veronica persica)
Outline: as §1

[6] = system: false cleavers; experiment: Test Example 4: herbicidal effect by soil treatment (Table 19, symbol Q); format: in vivo, false cleavers (Galium spurium)
Outline: as §1

[7] = system: windgrass; experiment: Test Example 4: herbicidal effect by soil treatment (Table 19, symbol L); format: in vivo, windgrass (Apera spica-venti)
Outline: as §1

[8] = system: redroot pigweed; experiment: Test Example 5: herbicidal effect by foliage application, plastic box (Table 20, symbol N); format: in vivo, redroot pigweed (Amaranthus retroflexus)
Outline: as §2

[9] = system: persian speedwell; experiment: Test Example 5: herbicidal effect by foliage application, plastic box (Table 20, symbol R); format: in vivo, Persian speedwell (Veronica persica)
Outline: as §2

[10] = system: southern crabgrass; experiment: Test Example 5: herbicidal effect by foliage application, plastic box (Table 20, symbol F); format: in vivo, southern crabgrass (Digitaria ciliaris)
Outline: as §2

[11] = system: Italian ryegrass; experiment: Test Example 4: herbicidal effect by soil treatment (Table 19, symbol K); format: in vivo, Italian ryegrass (Lolium multiflorum)
Outline: as §1

[12] = system: barnyard grass; experiment: Test Example 3: herbicidal effect by foliage application, Wagner pot (Table 18, symbol H); format: in vivo, barnyard grass (Echinochloa crus-galli); conditions: 320 g/ha
Outline: (§3)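 Plants were sown in alluvial soil held under 0.1–0.5 cm standing water and grown 14 days in a greenhouse at 25–30 °C. An emulsifiable formulation, water-diluted to the set dose, was then sprayed onto the foliage, and effects were scored three weeks later using previously defined criteria.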

[13] = system: blackgrass; experiment: Test Example 4: herbicidal effect by soil treatment (Table 19, symbol J); format: in vivo, blackgrass (Alopecurus myosuroides)
Outline: as §1

[14] = system: wild oat; experiment: Test Example 5: herbicidal effect by foliage application, plastic box (Table 20, symbol I); format: in vivo, wild oat (Avena fatua)
Outline: as §2

[15] = system: chickweed; experiment: Test Example 5: herbicidal effect by foliage application, plastic box (Table 20, symbol P); format: in vivo, common chickweed (Stellaria media)
Outline: as §2

[16] = system: barnyard grass; experiment: Test Example 4: herbicidal effect by soil treatment (Table 19, symbol H); format: in vivo, barnyard grass (Echinochloa crus-galli)
Outline: as §1

[17] = system: green foxtail; experiment: Test Example 5: herbicidal effect by foliage application, plastic box (Table 20, symbol G); format: in vivo, green foxtail (Setaria viridis)
Outline: as §2

[18] = system: green foxtail; experiment: Test Example 4: herbicidal effect by soil treatment (Table 19, symbol G); format: in vivo, green foxtail (Setaria viridis)
Outline: as §1

[19] = system: windgrass; experiment: Test Example 5: herbicidal effect by foliage application, plastic box (Table 20, symbol L); format: in vivo, windgrass (Apera spica-venti); conditions: foliage application, AAH 320 g/ha, three weeks after application
Outline: as §2

[20] = system: wild oat; experiment: Test Example 4: herbicidal effect by soil treatment (Table 19, symbol I); format: in vivo, wild oat (Avena fatua)
Outline: as §1

[21] = system: velvetleaf; experiment: Test Example 4: herbicidal effect by soil treatment (Table 19, symbol M); format: in vivo, velvetleaf (Abutilon theophrasti)
Outline: as §1

[22] = system: rice flat sedge; experiment: Test Example 3: herbicidal effect by foliage application, Wagner pot (Table 18, symbol E); format: in vivo, rice flat sedge (Cyperus iria); conditions: 320 g/ha
Outline: as §3

[23] = system: velvetleaf; experiment: Test Example 5: herbicidal effect by foliage application, plastic box (Table 20, symbol M); format: in vivo, velvetleaf (Abutilon theophrasti)
Outline: as §2

[24] = system: blackgrass; experiment: Test Example 5: herbicidal effect by foliage application, plastic box (Table 20, symbol J); format: in vivo, blackgrass (Alopecurus myosuroides)
Outline: as §2

[25] = system: chickweed; experiment: Test Example 4: herbicidal effect by soil treatment (Table 19, symbol P); format: in vivo, common chickweed (Stellaria media)
Outline: as §1

[26] = system: Chinese sprangletop; experiment: Test Example 3: herbicidal effect by foliage application, Wagner pot (Table 18, symbol D); format: in vivo, chinese sprangletop (Leptochloa chinensis); conditions: 320 g/ha
Outline: as §3

[27] = system: lambsquarters; experiment: Test Example 5: herbicidal effect by foliage application, plastic box (Table 20, symbol O); format: in vivo, lambsquarters (Chenopodium album)
Outline: as §2

[28] = system: redroot pigweed; experiment: Test Example 4: herbicidal effect by soil treatment (Table 19, symbol N); format: in vivo, redroot pigweed (Amaranthus retroflexus); conditions: amount of applied herbicide 320 g/ha
Outline: as §1

[29] = foliage application, AAH 320 g/ha, three weeks after application
[30] = amount of applied herbicide 320 g/ha
[31] = 320 g/ha, foliage application after 14-day growth, evaluated three weeks after application

Structure (SMILES): CCCC(=O)Oc1c(OC)nn(C)c(=O)c1-c1c(-c2ccc(F)c(F)c2)sc2ccccc12 [1-173]
- O: lambsquarters, herbicidal effect rating ([1]; AAH 320 g/ha): 5 (Herbicidal rate of 90% or more (almost completely withered))
- F: southern crabgrass, herbicidal effect rating ([2]; AAH 320 g/ha): 0 (Herbicidal rate of 5% or less (almost no effect))
- H: barnyard grass, herbicidal effect [3, 29]: 0 (Herbicidal rate of 5% or less (almost no effect))
- K: Italian ryegrass, herbicidal effect [4, 29]: 4 (Herbicidal rate of 70% or more and less than 90%)
- R: persian speedwell, herbicidal effect rating ([5]; AAH 320 g/ha): 5 (Herbicidal rate of 90% or more (almost completely withered))
- Q: false cleavers, herbicidal effect rating ([6]; AAH 320 g/ha): 3 (Herbicidal rate of 40% or more and less than 70%)
- L: windgrass, herbicidal effect rating ([7]; AAH 320 g/ha): 0 (Herbicidal rate of 5% or less (almost no effect))
- N: redroot pigweed, herbicidal effect [8, 29]: 5 (Herbicidal rate of 90% or more (almost completely withered))
- R: persian speedwell, herbicidal effect [9, 29]: 5 (Herbicidal rate of 90% or more (almost completely withered))
- F: southern crabgrass, herbicidal effect [10, 29]: 0 (Herbicidal rate of 5% or less (almost no effect))
- K: Italian ryegrass, herbicidal effect rating ([11]; AAH 320 g/ha): 2 (Herbicidal rate of 20% or more and less than 40%)
- herbicidal effect on H (barnyard grass), rating 0-5 [12]: 1 (Herbicidal rate of 5% or more and less than 20%)
- J: blackgrass, herbicidal effect rating ([13]; AAH 320 g/ha): 0 (Herbicidal rate of 5% or less (almost no effect))
- I: wild oat, herbicidal effect [14, 29]: 1 (Herbicidal rate of 5% or more and less than 20%)
- P: chickweed, herbicidal effect [15, 29]: 5 (Herbicidal rate of 90% or more (almost completely withered))
- H: barnyard grass, herbicidal effect rating ([16]; AAH 320 g/ha): 0 (Herbicidal rate of 5% or less (almost no effect))
- G: green foxtail, herbicidal effect [17, 29]: 3 (Herbicidal rate of 40% or more and less than 70%)
- G: green foxtail, herbicidal effect rating ([18]; AAH 320 g/ha): 5 (Herbicidal rate of 90% or more (almost completely withered))
- L: windgrass, herbicidal effect [19]: 0 (Herbicidal rate of 5% or less (almost no effect))
- I: wild oat, herbicidal effect rating ([20]; AAH 320 g/ha): 0 (Herbicidal rate of 5% or less (almost no effect))
- M: velvetleaf, herbicidal effect rating ([21]; AAH 320 g/ha): 4 (Herbicidal rate of 70% or more and less than 90%)
- herbicidal effect on E (rice flat sedge), rating 0-5 [22]: 5 (Herbicidal rate of 90% or more (almost completely withered))
- M: velvetleaf, herbicidal effect [23, 29]: 5 (Herbicidal rate of 90% or more (almost completely withered))
- J: blackgrass, herbicidal effect [24, 29]: 1 (Herbicidal rate of 5% or more and less than 20%)
- P: chickweed, herbicidal effect rating ([25]; AAH 320 g/ha): 5 (Herbicidal rate of 90% or more (almost completely withered))
- herbicidal effect on D (Chinese sprangletop), rating 0-5 [26]: 0 (Herbicidal rate of 5% or less (almost no effect))
- O: lambsquarters, herbicidal effect [27, 29]: 5 (Herbicidal rate of 90% or more (almost completely withered))

Structure (SMILES): COc1ccc(-c2sc3c(F)cccc3c2-c2c(O)c(C)nn(C)c2=O)cc1 [4-005]
- Herbicidal effect by soil treatment, O: lambsquarters [1, 30]: 4 (Herbicidal rate of 70% or more and less than 90%)
- Herbicidal effect by soil treatment, F: southern crabgrass [2, 30]: 0 (Herbicidal rate of 5% or less (almost no effect))
- herbicidal effect on H: barnyard grass (evaluation grade 0-5) [3, 31]: 3 (Herbicidal rate of 40% or more and less than 70%)
- herbicidal effect on K: Italian ryegrass (evaluation grade 0-5) [4, 31]: 4 (Herbicidal rate of 70% or more and less than 90%)
- Herbicidal effect by soil treatment, R: persian speedwell [5, 30]: 5 (Herbicidal rate of 90% or more (almost completely withered))
- Herbicidal effect by soil treatment, Q: false cleavers [6, 30]: 0 (Herbicidal rate of 5% or less (almost no effect))
- Herbicidal effect by soil treatment, L: windgrass [7, 30]: 0 (Herbicidal rate of 5% or less (almost no effect))
- herbicidal effect on N: redroot pigweed (evaluation grade 0-5) [8, 31]: 3 (Herbicidal rate of 40% or more and less than 70%)
- herbicidal effect on R: persian speedwell (evaluation grade 0-5) [9, 31]: 5 (Herbicidal rate of 90% or more (almost completely withered))
- Herbicidal effect by soil treatment, N: redroot pigweed [28]: 0 (Herbicidal rate of 5% or less (almost no effect))
- herbicidal effect on F: southern crabgrass (evaluation grade 0-5) [10, 31]: 0 (Herbicidal rate of 5% or less (almost no effect))
- Herbicidal effect by soil treatment, K: Italian ryegrass [11, 30]: 0 (Herbicidal rate of 5% or less (almost no effect))
- herbicidal effect on barnyard grass (H) [12]: 4 (Herbicidal rate of 70% or more and less than 90%)
- Herbicidal effect by soil treatment, J: blackgrass [13, 30]: 0 (Herbicidal rate of 5% or less (almost no effect))
- herbicidal effect on I: wild oat (evaluation grade 0-5) [14, 31]: 0 (Herbicidal rate of 5% or less (almost no effect))
- herbicidal effect on P: chickweed (evaluation grade 0-5) [15, 31]: 5 (Herbicidal rate of 90% or more (almost completely withered))
- Herbicidal effect by soil treatment, H: barnyard grass [16, 30]: 4 (Herbicidal rate of 70% or more and less than 90%)
- herbicidal effect on G: green foxtail (evaluation grade 0-5) [17, 31]: 5 (Herbicidal rate of 90% or more (almost completely withered))
- Herbicidal effect by soil treatment, G: green foxtail [18, 30]: 5 (Herbicidal rate of 90% or more (almost completely withered))
- Herbicidal effect by soil treatment, I: wild oat [20, 30]: 0 (Herbicidal rate of 5% or less (almost no effect))
- Herbicidal effect by soil treatment, M: velvetleaf [21, 30]: 0 (Herbicidal rate of 5% or less (almost no effect))
- herbicidal effect on rice flat sedge (E) [22]: 5 (Herbicidal rate of 90% or more (almost completely withered))
- herbicidal effect on M: velvetleaf (evaluation grade 0-5) [23, 31]: 3 (Herbicidal rate of 40% or more and less than 70%)
- herbicidal effect on J: blackgrass (evaluation grade 0-5) [24, 31]: 0 (Herbicidal rate of 5% or less (almost no effect))
- Herbicidal effect by soil treatment, P: chickweed [25, 30]: 4 (Herbicidal rate of 70% or more and less than 90%)
- herbicidal effect on Chinese sprangletop (D) [26]: 3 (Herbicidal rate of 40% or more and less than 70%)
- herbicidal effect on O: lambsquarters (evaluation grade 0-5) [27, 31]: 3 (Herbicidal rate of 40% or more and less than 70%)
